pIC50, pKd: −log10 of the molar value.

One assay has as its system K562. The assay is described as follows: Cytotoxicity against human leukemia cell line K562. It is filed as functional, cell-based.
Assay [1] can be described thus: Dissociation binding constant was determined for apoNCS binding site using fluorescence quenching titration assay.
Assay [2] is described as follows: Dissociation binding constant was determined for apoNCS binding site using fluorescence quenching titration assay; Insufficient change in fluorescence.

`COc1cc(C)c2ccc(O)c(C(=O)OCCOC(=O)C(N)Cc3ccc(N(CCCl)CCCl)cc3)c2c1` (configuration not stated): in the assay with K562, the pIC50 was 5.15. In assay [1], this molecule showed a negative-log Kd (pKd) of 4.33.

With `COc1cc(C)c2ccc(O)c(C(=O)OCCOC(=O)CCCc3ccc(N(CCCl)CCCl)cc3)c2c1`, the pIC50 with K562 is 3.70. Further, in assay [1], the pKd is below 3.00.

The molecule `O=C(O)CCCc1ccc(N(CCCl)CCCl)cc1` [CHLORAMBUCIL] had a pIC50 with K562 of 4.02.

With `N[C@@H](Cc1ccc(N(CCCl)CCCl)cc1)C(=O)O` [MELPHALAN], the pIC50 in the assay on K562 was 4.52. Further, the Kd result in assay [2] is reported as “Insufficient change in fluorescence”.

As usually defined, the pIC50 is −log10 of the IC50, conventionally taken in molar units. Higher therefore signals a small IC50. By pKd is commonly meant the negative decadic logarithm of the Kd, by convention in mol/L. Lower therefore signals a high Kd.

Values taken from ChEMBL document CHEMBL1137988, “Design and synthesis of a nitrogen mustard derivative stabilized by apo-neocarzinostatin” (J Med Chem, 2004).
